How the values were obtained:
Experiment in all cases: NADH oxidation at […] nm, reductive amination of 2-oxoglutarate
Format in all cases: biochemical
[1] = target: hGDH2 (human glutamate dehydrogenase isozyme 2) (Homo sapiens, UniProt P49448, C327A)
[2] = target: hGDH2 (human glutamate dehydrogenase isozyme 2) (Homo sapiens, UniProt P49448)
[3] = target: hGDH2 (human glutamate dehydrogenase isozyme 2) (Homo sapiens, UniProt P49448, C254A)
[4] = target: hGDH2 (human glutamate dehydrogenase isozyme 2) (Homo sapiens, UniProt P49448, C112A)
[5] = target: hGDH2 (human glutamate dehydrogenase isozyme 2) (Homo sapiens, UniProt P49448, C172A)
[6] = target: hGDH2 (human glutamate dehydrogenase isozyme 2) (Homo sapiens, UniProt P49448, C146A)
Sequence of hGDH2 (human glutamate dehydrogenase isozyme 2) (Homo sapiens, UniProt P49448, C146A) (P49448 54-558 C146A): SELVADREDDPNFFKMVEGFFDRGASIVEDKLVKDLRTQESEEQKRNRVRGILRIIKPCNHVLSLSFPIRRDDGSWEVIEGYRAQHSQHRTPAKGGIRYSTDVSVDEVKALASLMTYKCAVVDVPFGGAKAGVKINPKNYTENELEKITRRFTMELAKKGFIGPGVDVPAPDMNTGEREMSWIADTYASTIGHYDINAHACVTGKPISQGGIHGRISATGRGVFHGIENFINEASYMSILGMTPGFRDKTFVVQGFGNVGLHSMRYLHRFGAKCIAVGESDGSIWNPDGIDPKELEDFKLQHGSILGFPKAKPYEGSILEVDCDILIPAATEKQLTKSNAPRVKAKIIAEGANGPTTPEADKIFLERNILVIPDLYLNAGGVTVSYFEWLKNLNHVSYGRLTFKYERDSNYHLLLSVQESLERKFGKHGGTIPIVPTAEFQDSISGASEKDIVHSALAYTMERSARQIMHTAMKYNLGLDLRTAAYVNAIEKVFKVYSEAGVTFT

Sequence of hGDH2 (human glutamate dehydrogenase isozyme 2) (Homo sapiens, UniProt P49448, C254A) (P49448 54-558 C254A): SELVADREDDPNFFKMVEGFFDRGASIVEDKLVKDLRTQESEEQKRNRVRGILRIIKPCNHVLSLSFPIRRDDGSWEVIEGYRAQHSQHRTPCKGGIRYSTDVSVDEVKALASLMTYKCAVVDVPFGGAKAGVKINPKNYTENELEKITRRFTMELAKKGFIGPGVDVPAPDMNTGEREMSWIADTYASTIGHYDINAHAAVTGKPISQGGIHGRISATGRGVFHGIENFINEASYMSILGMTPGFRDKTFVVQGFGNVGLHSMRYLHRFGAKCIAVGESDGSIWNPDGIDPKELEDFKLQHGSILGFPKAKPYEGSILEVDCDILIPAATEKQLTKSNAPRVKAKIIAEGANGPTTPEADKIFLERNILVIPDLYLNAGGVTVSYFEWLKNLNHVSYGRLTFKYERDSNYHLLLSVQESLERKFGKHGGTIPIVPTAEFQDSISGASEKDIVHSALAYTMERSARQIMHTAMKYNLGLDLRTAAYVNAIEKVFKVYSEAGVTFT
Sequence of hGDH2 (human glutamate dehydrogenase isozyme 2) (Homo sapiens, UniProt P49448) (P49448 54-558): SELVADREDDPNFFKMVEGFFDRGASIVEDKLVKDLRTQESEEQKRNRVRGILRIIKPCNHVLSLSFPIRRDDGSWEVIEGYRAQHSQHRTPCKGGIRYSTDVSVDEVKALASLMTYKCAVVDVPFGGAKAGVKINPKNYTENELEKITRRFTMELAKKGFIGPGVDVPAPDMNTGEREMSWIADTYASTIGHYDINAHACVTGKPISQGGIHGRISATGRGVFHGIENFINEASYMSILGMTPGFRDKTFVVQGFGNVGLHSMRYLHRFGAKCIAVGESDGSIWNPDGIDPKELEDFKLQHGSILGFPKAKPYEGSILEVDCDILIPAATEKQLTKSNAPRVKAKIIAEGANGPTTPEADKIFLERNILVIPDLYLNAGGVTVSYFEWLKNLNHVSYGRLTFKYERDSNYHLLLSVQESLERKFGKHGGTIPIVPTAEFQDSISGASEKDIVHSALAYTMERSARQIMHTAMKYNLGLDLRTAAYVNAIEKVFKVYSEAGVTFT
Sequence of hGDH2 (human glutamate dehydrogenase isozyme 2) (Homo sapiens, UniProt P49448, C172A) (P49448 54-558 C172A): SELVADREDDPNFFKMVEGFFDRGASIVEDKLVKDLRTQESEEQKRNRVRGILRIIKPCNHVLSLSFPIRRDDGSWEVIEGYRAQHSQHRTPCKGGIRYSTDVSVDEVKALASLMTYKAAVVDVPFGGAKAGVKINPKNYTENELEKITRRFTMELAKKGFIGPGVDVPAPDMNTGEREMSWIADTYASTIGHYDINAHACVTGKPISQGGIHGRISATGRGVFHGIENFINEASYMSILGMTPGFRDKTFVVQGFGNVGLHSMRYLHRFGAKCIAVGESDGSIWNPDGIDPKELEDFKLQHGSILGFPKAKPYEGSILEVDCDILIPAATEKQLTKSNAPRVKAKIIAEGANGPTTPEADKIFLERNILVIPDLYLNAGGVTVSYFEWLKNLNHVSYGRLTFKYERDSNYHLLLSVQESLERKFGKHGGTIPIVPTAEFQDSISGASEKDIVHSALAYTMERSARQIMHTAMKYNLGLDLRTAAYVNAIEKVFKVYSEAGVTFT
Sequence of hGDH2 (human glutamate dehydrogenase isozyme 2) (Homo sapiens, UniProt P49448, C327A) (P49448 54-558 C327A): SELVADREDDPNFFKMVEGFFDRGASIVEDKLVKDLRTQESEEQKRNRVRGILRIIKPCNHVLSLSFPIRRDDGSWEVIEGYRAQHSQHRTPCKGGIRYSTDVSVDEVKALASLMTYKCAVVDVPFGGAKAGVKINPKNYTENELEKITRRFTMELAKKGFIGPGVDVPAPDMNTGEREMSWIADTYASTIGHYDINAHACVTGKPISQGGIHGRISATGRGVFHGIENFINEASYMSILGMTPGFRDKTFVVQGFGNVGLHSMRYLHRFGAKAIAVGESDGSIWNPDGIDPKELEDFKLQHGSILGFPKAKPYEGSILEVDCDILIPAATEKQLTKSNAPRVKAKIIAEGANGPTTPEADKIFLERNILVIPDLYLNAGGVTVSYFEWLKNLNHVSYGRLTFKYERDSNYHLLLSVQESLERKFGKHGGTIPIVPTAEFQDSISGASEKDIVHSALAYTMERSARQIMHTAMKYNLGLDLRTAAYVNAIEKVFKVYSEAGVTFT
Sequence of hGDH2 (human glutamate dehydrogenase isozyme 2) (Homo sapiens, UniProt P49448, C112A) (P49448 54-558 C112A): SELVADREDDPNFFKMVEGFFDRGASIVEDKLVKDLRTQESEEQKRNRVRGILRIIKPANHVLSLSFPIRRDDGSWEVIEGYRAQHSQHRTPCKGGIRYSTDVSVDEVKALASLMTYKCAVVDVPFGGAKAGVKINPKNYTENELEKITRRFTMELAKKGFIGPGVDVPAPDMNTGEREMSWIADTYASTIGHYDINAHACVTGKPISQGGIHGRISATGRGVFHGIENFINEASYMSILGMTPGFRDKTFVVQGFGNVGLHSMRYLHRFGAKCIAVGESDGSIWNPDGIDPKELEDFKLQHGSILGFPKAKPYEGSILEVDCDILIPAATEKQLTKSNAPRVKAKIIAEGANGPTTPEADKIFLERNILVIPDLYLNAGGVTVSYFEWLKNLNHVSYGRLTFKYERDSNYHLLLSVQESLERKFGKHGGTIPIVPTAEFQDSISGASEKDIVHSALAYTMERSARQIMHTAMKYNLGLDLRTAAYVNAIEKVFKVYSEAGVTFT

IC50 [1]: 2.31 µM | IC50 [2]: 1.82 µM | IC50 [3]: 2.47 µM | IC50 [4]: 2.15 µM | IC50 [5]: 1.98 µM | IC50 [6]: 2.6 µM
SMILES: CCCCCCCCCCCCCCCC(=O)SCCNC(=O)CCNC(=O)[C@H](O)C(C)(C)COP(=O)(O)OP(=O)(O)OC[C@H]1O[C@@H](n2cnc3c(N)ncnc32)[C@H](O)[C@@H]1OP(=O)(O)O [palmitoyl-CoA]

From PMC4133811 (BMB Reports, 2012)
